Reference: the supplement of paper PMC10307832

What was measured:
Experiment in all cases: relative viability (nuclei count vs DMSO), 5 days (fraction); higher = more cells survive
Sunitinib + Foretinib = compound: CCN(CC)CCNC(=O)c1c(C)[nH]c(/C=C2\C(=O)Nc3ccc(F)cc32)c1C [Sunitinib] + COc1cc2c(Oc3ccc(NC(=O)C4(C(=O)Nc5ccc(F)cc5)CC4)cc3F)ccnc2cc1OCCCN1CCOCC1 [Foretinib] (partner 0.25 µM)
Method in brief: (§1)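 A single step with final 0.05% Triton X-100, 1% formaldehyde and 1 ug/ml Hoechst fixed the cells and stained nuclei 5 days after treatment. Lung cancer cell lines in 1536-well plates had been treated by pin tool the day after seeding with one drug alone or a fixed anchor-drug dose plus five library-drug doses (not always all listed) in √10 steps, and nuclei were counted on 4× images. Relative viability is the ratio of nuclei in treated wells to nuclei in vehicle wells, taken as the median of duplicate plates.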

Sunitinib + Alpelisib = compound: CCN(CC)CCNC(=O)c1c(C)[nH]c(/C=C2\C(=O)Nc3ccc(F)cc32)c1C [Sunitinib] + Cc1nc(NC(=O)N2CCC[C@H]2C(N)=O)sc1-c1ccnc(C(C)(C)C(F)(F)F)c1 [Alpelisib] (partner 2 µM)
Method in brief: as §1

Sunitinib + Pemetrexed = compound: CCN(CC)CCNC(=O)c1c(C)[nH]c(/C=C2\C(=O)Nc3ccc(F)cc32)c1C [Sunitinib] + Nc1nc2[nH]cc(CCc3ccc(C(=O)N[C@@H](CCC(=O)O)C(=O)O)cc3)c2c(=O)[nH]1 [Pemetrexed] (partner 0.2 µM)
Method in brief: as §1

Sunitinib + Olaparib = compound: CCN(CC)CCNC(=O)c1c(C)[nH]c(/C=C2\C(=O)Nc3ccc(F)cc32)c1C [Sunitinib] + O=C(c1cc(Cc2n[nH]c(=O)c3ccccc23)ccc1F)N1CCN(C(=O)C2CC2)CC1 [Olaparib] (partner 8 µM)
Method in brief: as §1

| Cell Line | relative viability (Sunitinib + Foretinib; first compound 0.02 µM) | relative viability (Sunitinib + Foretinib; first compound 0.06325 µM) | relative viability (Sunitinib + Foretinib; first compound 0.2 µM) | relative viability (Sunitinib + Foretinib; first compound 0.6325 µM) | relative viability (Sunitinib + Foretinib; first compound 2 µM) | relative viability (Sunitinib + Alpelisib; first compound 0.06325 µM) | relative viability (Sunitinib + Alpelisib; first compound 0.2 µM) | relative viability (Sunitinib + Alpelisib; first compound 0.6325 µM) | relative viability (Sunitinib + Alpelisib; first compound 2 µM) | relative viability (Sunitinib + Pemetrexed; first compound 0.02 µM) | relative viability (Sunitinib + Pemetrexed; first compound 0.06325 µM) | relative viability (Sunitinib + Pemetrexed; first compound 0.2 µM) | relative viability (Sunitinib + Pemetrexed; first compound 0.6325 µM) | relative viability (Sunitinib + Pemetrexed; first compound 2 µM) | relative viability (Sunitinib + Olaparib; first compound 0.02 µM) | relative viability (Sunitinib + Olaparib; first compound 0.06325 µM) | relative viability (Sunitinib + Olaparib; first compound 0.2 µM) | relative viability (Sunitinib + Olaparib; first compound 0.6325 µM) | relative viability (Sunitinib + Olaparib; first compound 2 µM) | relative viability (Sunitinib + Alpelisib; first compound 0.02 µM) |
| --- | --- | --- | --- | --- | --- | --- | --- | --- | --- | --- | --- | --- | --- | --- | --- | --- | --- | --- | --- | --- |
| NCI-H3122 | 0.904 | 0.963 | 1.04 | 0.976 | 0.97 | 0.894 | 0.84 | 0.725 | 0.803 | 0.201 | 0.215 | 0.202 | 0.185 | 0.205 | 0.636 | 0.692 | 0.657 | 0.606 | 0.585 | – |
| EPLC-272H | 0.702 | 0.65 | – | 0.771 | 0.637 | 0.668 | 1 | 1 | 0.729 | 0.39 | 0.298 | 0.314 | 0.42 | 0.363 | 0.764 | 0.998 | 1.01 | 0.746 | 0.388 | 0.885 |
| LU99A | 0.731 | 0.894 | 0.931 | 1.01 | 0.91 | 0.547 | 0.586 | 0.566 | – | 0.199 | 0.185 | 0.198 | 0.151 | 0.162 | 0.267 | 0.27 | 0.271 | 0.321 | 0.295 | 0.512 |
| LXF-289 | 0.979 | 1.02 | 1.02 | 1.03 | 1.1 | 1.02 | 1.13 | 1.12 | 1.04 | 0.882 | 0.972 | 0.925 | 0.945 | 0.874 | 1.03 | 1.06 | 1.2 | 1.11 | 1.12 | 1.01 |
| NCI-H1395 | 0.955 | 0.996 | 1.05 | 1 | 1.14 | 1.14 | 1.72 | 1.31 | 1.05 | 0.845 | 0.937 | 0.935 | 1.1 | 0.91 | 0.441 | 0.438 | 0.478 | 0.484 | 0.482 | 0.995 |
| NCI-H650 | 1.03 | 1.01 | 1.06 | 1.11 | 0.975 | 0.608 | 1.25 | 1.14 | 1.16 | 0.877 | 0.958 | 0.914 | 1.05 | 1.01 | 0.399 | 0.405 | 0.39 | 0.445 | 0.384 | 0.891 |
| 201T | 1.01 | 1.1 | 1.22 | 1.17 | 1.01 | – | 1.06 | – | 1.02 | 0.32 | 0.325 | 0.356 | 0.301 | 0.355 | 0.843 | 0.845 | 0.855 | 0.865 | 0.853 | 1.04 |
| NCI-H2170 | 0.987 | 1.01 | 1.05 | 1.01 | 0.843 | 0.782 | 0.998 | 0.914 | 0.777 | 0.259 | 0.274 | 0.432 | 0.291 | 0.275 | 0.593 | 0.571 | 0.651 | 0.605 | 0.535 | 0.757 |
| NCI-H460 | 0.879 | 1.08 | 1.03 | 1.05 | 1.06 | 0.567 | 0.615 | 0.661 | 0.258 | 0.0562 | 0.061 | 0.0606 | 0.0589 | 0.0505 | 0.41 | 0.484 | 0.614 | 0.473 | 0.578 | 0.454 |
| NCI-H1755 | 0.891 | 0.897 | 0.959 | 0.981 | 0.936 | 0.915 | 1.01 | 0.94 | – | 0.427 | 0.502 | 0.636 | 0.407 | 0.52 | 0.859 | 0.881 | 0.93 | 0.961 | 0.91 | 0.938 |
| NCI-H1975 | 0.899 | 1.03 | 1.07 | 1.01 | 1.01 | 0.686 | 0.669 | 0.677 | 0.381 | 0.289 | 0.318 | 0.317 | 0.298 | 0.305 | 0.742 | 0.8 | 0.946 | 0.868 | 0.714 | 0.597 |
| NCI-H23 | 0.875 | 1.25 | 1.03 | 1.1 | 0.749 | 0.747 | 0.751 | 0.828 | 0.692 | 0.689 | 0.823 | 0.922 | 0.86 | 0.563 | 0.353 | 0.28 | 0.307 | 0.312 | 0.307 | 0.568 |
| NCI-H2405 | 1.07 | 1.06 | 1.09 | 1.05 | 1.11 | 0.811 | 0.862 | 1.06 | 0.713 | 1.07 | 1.1 | 1.21 | 1.13 | 1.13 | 0.855 | 0.965 | 0.88 | 0.96 | 0.93 | 0.816 |
| SK-LU-1 | – | 0.901 | 1.06 | 0.834 | 0.581 | 1.25 | 1.12 | 1.09 | 0.669 | 0.944 | 1 | 1.1 | 1.12 | 0.884 | 0.422 | 0.494 | 0.555 | 0.491 | 0.532 | 0.863 |
| PC-3 [JPC-3] | – | 1.05 | 1.12 | 1.02 | 1.01 | 1.07 | 1.03 | 1.07 | 0.99 | 1.35 | 1.08 | 1.13 | 1.11 | 1.03 | 1.05 | 1.12 | 1.22 | 1.12 | 0.926 | 1.1 |
| EKVX | 0.739 | 0.752 | 0.918 | 1.3 | 0.892 | – | – | 0.996 | 0.909 | 0.373 | 0.383 | 0.425 | 0.416 | 0.406 | 0.941 | 0.991 | 0.952 | 0.957 | 0.97 | 0.907 |
| RERF-LC-KJ | 0.873 | 0.907 | 0.903 | 0.87 | 0.919 | 0.826 | 0.932 | – | 0.789 | 0.472 | 0.483 | 0.485 | 0.418 | 0.49 | 0.872 | 0.939 | 1.04 | 0.971 | 0.896 | 0.775 |
| NCI-H1355 | 0.957 | 0.802 | – | – | 0.68 | 0.848 | – | 0.829 | 0.857 | 0.997 | 1.14 | 1.1 | 1.08 | – | 0.786 | 0.812 | 0.904 | 0.818 | 0.712 | 0.73 |
| LK-2 | 1.1 | 1.56 | 1.72 | 1.42 | 1.24 | 0.906 | 1.28 | 1.18 | 0.916 | 0.266 | 0.335 | 0.31 | 0.254 | 0.292 | 0.668 | 0.82 | 0.926 | 0.617 | 0.6 | 0.942 |
| NCI-H2085 | 0.851 | – | 1.02 | 0.957 | 0.935 | – | 0.992 | 0.988 | 0.978 | 0.909 | – | 1.04 | 0.952 | 0.87 | 0.777 | 0.801 | 0.819 | 0.808 | 0.787 | 0.998 |
| SW 1573 | 0.879 | 0.928 | 0.889 | 1.09 | 0.998 | 0.827 | 0.932 | 0.84 | 0.784 | 0.867 | – | 0.9 | 0.958 | 0.943 | 0.488 | 0.56 | 0.622 | 0.522 | 0.511 | 0.715 |
| NCI-H358 | 0.716 | 0.774 | 0.8 | 0.748 | 0.527 | 0.803 | – | 0.762 | 0.451 | 0.178 | 0.181 | 0.177 | 0.177 | 0.167 | 0.452 | 0.617 | 0.756 | 0.666 | 0.471 | 0.902 |
| LCLC-97TM1 | 0.926 | – | 1.13 | 0.991 | 0.926 | 0.351 | – | 0.276 | 0.286 | 0.167 | 0.198 | 0.164 | 0.163 | 0.212 | 0.377 | 0.401 | 0.548 | 0.477 | 0.442 | 0.24 |
| NCI-H647 | – | 1.03 | 1.34 | 1.13 | 1.21 | 1.04 | 1.36 | 1.21 | 0.82 | 0.189 | 0.197 | 0.187 | 0.209 | 0.193 | 0.536 | 0.517 | 0.655 | 0.639 | 0.396 | 1.05 |
| NCI-H1915 | 1.07 | 1.11 | 1.14 | 1.13 | 1.15 | 1.09 | 1.13 | 1.06 | 1.11 | 0.428 | 0.486 | 0.499 | 0.527 | 0.484 | 0.261 | 0.288 | 0.268 | 0.245 | 0.289 | – |
| CAL-12T | 1.07 | 1.27 | 1.32 | 1.03 | 1.28 | 1.19 | 1.25 | 1.43 | 1.14 | 1.06 | 1.17 | 1.17 | – | 1.34 | 0.718 | 0.755 | 0.791 | 0.817 | 0.772 | 0.957 |
| LCLC-103H | 0.702 | 1.01 | 0.922 | 0.873 | 0.791 | 0.945 | 0.993 | 0.958 | 0.959 | 0.452 | 0.443 | 0.487 | 0.442 | 0.445 | 0.69 | 0.839 | 0.787 | 0.75 | 0.817 | 0.822 |
| NCI-H1666 | 0.912 | 1 | 1.05 | 1.04 | 1.01 | 0.938 | 1.03 | 1.02 | 0.971 | 0.827 | 0.834 | 0.936 | 0.867 | 0.997 | 0.77 | 0.825 | 0.75 | 0.862 | 0.85 | 0.865 |
